Test results taken from ChEMBL document CHEMBL5291721, “A preclinical secondary pharmacology resource illuminates target-adverse drug reaction associations of marketed drugs” (Nat Commun, 2023).

What was measured:
[1] = molecular target: Beta-2 adrenergic receptor (Homo sapiens, UniProt P07550); assay type: functional, cell-based
Mu-type opioid receptor = Mu-type opioid receptor (Homo sapiens, UniProt P35372)
[2] = molecular target: T1, 5-hydroxytryptamine receptor 2B (Homo sapiens, UniProt P41595); assay type: functional, cell-based
[3] = molecular target: Prostaglandin G/H synthase 1 (Homo sapiens, UniProt P23219); assay type: functional
[4] = molecular target: Sodium-dependent dopamine transporter (Homo sapiens, UniProt Q01959)
[5] = molecular target: T2, Alpha-1A adrenergic receptor (Homo sapiens, UniProt P35348)
T2 sequence (P35348 whole entry): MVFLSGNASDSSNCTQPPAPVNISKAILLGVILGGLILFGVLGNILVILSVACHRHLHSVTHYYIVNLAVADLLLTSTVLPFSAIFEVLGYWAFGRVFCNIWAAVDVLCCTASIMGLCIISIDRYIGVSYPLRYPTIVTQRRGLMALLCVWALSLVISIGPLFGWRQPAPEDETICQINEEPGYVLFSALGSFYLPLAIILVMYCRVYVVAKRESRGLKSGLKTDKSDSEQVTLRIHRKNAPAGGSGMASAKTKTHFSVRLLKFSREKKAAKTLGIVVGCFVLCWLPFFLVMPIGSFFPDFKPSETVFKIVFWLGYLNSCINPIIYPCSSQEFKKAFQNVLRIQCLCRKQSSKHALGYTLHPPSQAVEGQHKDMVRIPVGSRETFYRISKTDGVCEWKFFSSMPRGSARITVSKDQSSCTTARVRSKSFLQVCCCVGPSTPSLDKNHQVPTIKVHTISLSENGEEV

[6] = molecular target: T2, Alpha-1A adrenergic receptor; assay type: functional, cell-based
Histamine H2 receptor = Histamine H2 receptor (Homo sapiens, UniProt P25021); assay type: functional, cell-based
Cannabinoid receptor 1 = Cannabinoid receptor 1 (Homo sapiens, UniProt P21554); assay type: functional, cell-based
Histamine H3 receptor = Histamine H3 receptor (Homo sapiens, UniProt Q9Y5N1)
Acetylcholinesterase = Acetylcholinesterase (Homo sapiens, UniProt P22303); assay type: functional
[7] = molecular target: T1, 5-hydroxytryptamine receptor 2B; assay type: functional, cell-based; remark: listed apart in the source
Thromboxane A2 receptor = molecular target: T3, Thromboxane A2 receptor (Homo sapiens, UniProt P21731); assay type: functional, cell-based
T3 sequence (P21731 whole entry): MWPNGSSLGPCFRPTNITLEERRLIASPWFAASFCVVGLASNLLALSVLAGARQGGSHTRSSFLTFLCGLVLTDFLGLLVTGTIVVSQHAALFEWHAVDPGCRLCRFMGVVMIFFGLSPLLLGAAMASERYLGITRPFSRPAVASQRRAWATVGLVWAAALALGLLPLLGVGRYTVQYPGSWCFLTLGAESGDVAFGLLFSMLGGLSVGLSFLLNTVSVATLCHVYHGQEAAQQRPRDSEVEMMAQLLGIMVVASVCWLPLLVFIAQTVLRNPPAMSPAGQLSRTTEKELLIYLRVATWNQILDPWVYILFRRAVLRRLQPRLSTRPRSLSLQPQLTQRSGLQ

Progesterone receptor = molecular target: T4, Progesterone receptor (Homo sapiens, UniProt P06401); assay type: functional
T4 sequence (P06401 whole entry): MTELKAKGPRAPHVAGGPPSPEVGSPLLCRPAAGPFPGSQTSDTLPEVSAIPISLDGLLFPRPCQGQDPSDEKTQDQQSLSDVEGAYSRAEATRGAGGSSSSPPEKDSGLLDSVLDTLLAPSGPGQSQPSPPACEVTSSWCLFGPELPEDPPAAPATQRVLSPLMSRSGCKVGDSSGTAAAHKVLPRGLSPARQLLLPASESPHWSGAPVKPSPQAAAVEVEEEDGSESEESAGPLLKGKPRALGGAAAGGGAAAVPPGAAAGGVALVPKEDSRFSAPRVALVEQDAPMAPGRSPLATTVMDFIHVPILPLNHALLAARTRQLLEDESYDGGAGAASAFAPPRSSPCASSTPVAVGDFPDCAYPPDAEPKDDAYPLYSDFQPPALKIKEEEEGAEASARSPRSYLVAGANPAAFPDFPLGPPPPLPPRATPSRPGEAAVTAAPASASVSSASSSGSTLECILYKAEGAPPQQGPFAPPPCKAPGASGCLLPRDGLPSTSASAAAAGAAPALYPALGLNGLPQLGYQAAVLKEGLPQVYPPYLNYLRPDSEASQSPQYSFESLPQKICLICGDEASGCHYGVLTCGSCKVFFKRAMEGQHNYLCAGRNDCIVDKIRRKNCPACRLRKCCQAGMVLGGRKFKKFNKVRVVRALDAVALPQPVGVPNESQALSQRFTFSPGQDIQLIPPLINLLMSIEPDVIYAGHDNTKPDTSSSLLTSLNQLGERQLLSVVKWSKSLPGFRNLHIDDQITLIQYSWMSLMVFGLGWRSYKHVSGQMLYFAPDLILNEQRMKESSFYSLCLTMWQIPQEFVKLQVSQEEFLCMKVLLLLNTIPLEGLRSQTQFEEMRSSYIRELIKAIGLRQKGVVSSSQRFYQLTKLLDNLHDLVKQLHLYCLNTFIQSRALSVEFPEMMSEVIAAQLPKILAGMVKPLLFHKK

Estrogen receptor = molecular target: T5, Estrogen receptor (Homo sapiens, UniProt P03372)
T5 sequence (P03372 whole entry): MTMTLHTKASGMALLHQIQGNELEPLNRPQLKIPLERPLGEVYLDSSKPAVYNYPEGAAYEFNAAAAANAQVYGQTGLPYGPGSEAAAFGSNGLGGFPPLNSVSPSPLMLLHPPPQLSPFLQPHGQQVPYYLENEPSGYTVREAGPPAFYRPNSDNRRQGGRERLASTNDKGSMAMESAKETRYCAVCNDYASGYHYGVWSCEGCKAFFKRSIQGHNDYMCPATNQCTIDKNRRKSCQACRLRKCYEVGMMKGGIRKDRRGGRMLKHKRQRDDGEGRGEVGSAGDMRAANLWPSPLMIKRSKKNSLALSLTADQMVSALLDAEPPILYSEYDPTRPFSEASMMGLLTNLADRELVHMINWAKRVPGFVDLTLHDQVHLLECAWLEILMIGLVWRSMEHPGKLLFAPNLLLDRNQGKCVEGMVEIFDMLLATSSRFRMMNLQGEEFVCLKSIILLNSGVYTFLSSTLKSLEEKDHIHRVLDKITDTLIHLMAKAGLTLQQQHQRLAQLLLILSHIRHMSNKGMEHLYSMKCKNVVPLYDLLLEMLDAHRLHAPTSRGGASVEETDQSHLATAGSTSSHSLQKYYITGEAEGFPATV
Also: assay procedure not described here.

Histamine H2 receptor, sequence (P25021 whole entry): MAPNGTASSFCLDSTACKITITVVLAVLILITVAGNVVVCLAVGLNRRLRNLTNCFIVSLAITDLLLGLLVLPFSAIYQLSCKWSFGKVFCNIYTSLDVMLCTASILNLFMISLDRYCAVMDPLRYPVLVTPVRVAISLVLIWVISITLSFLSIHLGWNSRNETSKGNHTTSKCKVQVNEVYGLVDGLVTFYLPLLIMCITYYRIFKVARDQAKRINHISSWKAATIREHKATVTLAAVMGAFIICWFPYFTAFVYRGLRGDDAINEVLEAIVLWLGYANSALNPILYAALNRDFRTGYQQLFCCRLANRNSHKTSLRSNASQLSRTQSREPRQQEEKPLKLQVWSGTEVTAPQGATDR
Histamine H3 receptor, sequence (Q9Y5N1 whole entry): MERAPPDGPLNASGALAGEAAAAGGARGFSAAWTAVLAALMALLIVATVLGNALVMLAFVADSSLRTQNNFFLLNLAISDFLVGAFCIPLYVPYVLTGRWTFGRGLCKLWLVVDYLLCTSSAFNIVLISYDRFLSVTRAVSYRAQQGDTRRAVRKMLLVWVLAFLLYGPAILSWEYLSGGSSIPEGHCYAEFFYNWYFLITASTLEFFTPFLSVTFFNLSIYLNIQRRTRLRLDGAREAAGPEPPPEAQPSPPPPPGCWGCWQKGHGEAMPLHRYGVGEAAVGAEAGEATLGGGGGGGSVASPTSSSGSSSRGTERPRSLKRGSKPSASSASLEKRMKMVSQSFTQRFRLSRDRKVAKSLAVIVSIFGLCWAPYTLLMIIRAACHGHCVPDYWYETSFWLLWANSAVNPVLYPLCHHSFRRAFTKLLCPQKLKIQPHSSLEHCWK
T1 sequence (P41595 whole entry): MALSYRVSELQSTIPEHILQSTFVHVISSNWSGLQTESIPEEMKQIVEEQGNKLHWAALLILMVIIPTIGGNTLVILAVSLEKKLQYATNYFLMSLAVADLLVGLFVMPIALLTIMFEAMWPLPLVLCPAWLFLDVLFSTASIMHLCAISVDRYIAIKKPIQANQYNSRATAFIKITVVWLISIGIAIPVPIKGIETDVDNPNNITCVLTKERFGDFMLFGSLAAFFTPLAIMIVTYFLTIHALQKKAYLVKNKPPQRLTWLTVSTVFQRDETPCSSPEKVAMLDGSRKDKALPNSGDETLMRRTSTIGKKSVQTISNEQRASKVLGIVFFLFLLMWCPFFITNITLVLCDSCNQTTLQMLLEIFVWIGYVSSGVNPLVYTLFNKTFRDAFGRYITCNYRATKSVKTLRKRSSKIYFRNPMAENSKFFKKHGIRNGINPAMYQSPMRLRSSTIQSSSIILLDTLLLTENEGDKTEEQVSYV
Mu-type opioid receptor, sequence (P35372 whole entry): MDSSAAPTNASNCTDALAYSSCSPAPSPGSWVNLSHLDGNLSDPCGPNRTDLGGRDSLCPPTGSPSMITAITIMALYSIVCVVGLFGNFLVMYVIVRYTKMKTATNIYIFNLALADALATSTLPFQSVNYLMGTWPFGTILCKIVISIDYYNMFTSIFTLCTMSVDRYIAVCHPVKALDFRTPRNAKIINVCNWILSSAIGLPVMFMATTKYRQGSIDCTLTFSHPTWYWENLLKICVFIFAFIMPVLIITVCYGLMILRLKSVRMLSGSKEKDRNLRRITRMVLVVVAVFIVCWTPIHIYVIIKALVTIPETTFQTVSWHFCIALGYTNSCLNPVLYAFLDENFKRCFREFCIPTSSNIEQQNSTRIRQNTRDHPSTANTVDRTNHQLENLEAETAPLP
Cannabinoid receptor 1, sequence (P21554 whole entry): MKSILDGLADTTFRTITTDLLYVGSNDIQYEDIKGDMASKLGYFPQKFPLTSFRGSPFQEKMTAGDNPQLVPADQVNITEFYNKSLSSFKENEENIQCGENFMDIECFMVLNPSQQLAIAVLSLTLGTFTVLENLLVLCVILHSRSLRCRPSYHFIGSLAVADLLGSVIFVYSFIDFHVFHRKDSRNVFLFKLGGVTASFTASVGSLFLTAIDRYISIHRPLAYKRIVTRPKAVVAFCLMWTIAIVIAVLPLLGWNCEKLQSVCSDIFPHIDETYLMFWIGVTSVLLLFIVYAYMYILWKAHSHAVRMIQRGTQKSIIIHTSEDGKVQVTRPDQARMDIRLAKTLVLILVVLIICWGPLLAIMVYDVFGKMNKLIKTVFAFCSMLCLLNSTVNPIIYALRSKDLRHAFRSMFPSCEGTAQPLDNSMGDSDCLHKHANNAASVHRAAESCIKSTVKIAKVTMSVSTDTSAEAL
Prostaglandin G/H synthase 1, sequence (P23219 whole entry): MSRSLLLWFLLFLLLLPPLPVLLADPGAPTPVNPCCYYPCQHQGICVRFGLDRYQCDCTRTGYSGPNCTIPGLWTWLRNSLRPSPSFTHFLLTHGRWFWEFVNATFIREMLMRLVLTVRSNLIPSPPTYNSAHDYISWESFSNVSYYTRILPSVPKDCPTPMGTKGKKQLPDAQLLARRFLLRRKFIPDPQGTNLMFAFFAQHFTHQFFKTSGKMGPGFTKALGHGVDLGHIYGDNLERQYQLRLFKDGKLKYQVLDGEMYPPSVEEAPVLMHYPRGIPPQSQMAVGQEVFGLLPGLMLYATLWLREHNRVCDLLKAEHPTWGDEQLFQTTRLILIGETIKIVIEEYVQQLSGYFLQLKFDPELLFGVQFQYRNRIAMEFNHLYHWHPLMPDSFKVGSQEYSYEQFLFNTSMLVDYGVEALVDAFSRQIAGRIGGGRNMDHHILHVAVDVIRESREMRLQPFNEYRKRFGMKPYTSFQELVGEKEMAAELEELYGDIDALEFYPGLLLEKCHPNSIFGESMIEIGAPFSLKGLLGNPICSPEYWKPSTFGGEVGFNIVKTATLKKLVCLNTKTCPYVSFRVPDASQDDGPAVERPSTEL
Beta-2 adrenergic receptor, sequence (P07550 whole entry): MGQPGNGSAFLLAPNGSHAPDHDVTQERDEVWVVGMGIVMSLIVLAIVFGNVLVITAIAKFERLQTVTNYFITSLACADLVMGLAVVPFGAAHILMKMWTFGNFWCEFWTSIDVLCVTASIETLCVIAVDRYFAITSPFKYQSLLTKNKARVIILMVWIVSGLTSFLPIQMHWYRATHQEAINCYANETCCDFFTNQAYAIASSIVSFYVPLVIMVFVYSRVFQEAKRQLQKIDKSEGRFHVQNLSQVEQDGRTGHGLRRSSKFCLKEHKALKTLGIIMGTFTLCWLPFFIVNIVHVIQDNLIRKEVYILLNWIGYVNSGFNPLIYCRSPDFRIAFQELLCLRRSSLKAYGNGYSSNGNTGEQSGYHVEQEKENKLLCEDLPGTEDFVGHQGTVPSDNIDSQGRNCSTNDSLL
Sodium-dependent dopamine transporter, sequence (Q01959 whole entry): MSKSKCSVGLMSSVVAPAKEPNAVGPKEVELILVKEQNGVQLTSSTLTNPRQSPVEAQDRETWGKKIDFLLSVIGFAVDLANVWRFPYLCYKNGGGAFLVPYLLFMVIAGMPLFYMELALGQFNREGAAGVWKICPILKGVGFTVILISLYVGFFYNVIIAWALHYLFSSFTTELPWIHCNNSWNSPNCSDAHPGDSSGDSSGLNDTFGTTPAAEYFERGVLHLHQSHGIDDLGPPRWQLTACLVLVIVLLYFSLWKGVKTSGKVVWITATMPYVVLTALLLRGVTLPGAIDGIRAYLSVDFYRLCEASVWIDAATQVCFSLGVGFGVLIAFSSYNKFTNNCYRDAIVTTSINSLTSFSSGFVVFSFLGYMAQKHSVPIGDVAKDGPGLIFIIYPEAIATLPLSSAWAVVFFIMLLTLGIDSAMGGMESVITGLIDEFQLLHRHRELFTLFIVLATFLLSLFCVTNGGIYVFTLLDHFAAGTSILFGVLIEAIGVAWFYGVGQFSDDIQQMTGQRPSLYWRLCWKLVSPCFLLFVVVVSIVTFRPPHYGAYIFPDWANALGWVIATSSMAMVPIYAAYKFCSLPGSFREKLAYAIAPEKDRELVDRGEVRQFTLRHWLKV
Acetylcholinesterase, sequence (P22303 whole entry): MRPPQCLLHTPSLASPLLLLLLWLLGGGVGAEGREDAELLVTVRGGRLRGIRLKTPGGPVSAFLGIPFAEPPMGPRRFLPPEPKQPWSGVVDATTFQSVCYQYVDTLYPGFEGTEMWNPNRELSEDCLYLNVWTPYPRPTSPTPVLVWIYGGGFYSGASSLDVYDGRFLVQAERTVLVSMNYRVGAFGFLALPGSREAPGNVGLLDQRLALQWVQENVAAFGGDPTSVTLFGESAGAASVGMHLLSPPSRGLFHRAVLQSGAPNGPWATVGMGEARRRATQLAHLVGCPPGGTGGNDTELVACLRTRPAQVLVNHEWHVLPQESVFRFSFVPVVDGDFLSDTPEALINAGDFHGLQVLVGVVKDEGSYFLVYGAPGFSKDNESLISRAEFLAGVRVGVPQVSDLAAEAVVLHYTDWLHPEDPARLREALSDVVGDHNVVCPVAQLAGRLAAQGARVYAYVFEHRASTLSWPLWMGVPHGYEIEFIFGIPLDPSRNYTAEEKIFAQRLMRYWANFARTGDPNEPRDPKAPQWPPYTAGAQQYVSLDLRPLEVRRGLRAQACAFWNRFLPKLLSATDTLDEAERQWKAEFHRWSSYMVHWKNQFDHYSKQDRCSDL

SMILES	AC50 [1] [µM]	AC50 (Mu-type opioid receptor) [µM]	AC50 [2] [µM]	AC50 [3] [µM]	AC50 [4] [µM]	AC50 [5] [µM]	AC50 [6] [µM]	AC50 (Histamine H2 receptor) [µM]	AC50 (Cannabinoid receptor 1) [µM]	AC50 (Histamine H3 receptor) [µM]	AC50 (Acetylcholinesterase) [µM]	AC50 [7] [µM]	AC50 (Thromboxane A2 receptor) [µM]	AC50 (Progesterone receptor) [µM]	AC50 (Estrogen receptor) [µM]
NCC(CC(=O)O)c1ccc(Cl)cc1 (centres undefined) [BACLOFEN]	> 30	> 30	> 30	> 30	> 30	> 10	> 30	> 10	> 30	> 30	> 30	> 30	> 30	> 30	
CC(C)C[C@H]1C(=O)N2CCC[C@H]2[C@]2(O)O[C@](NC(=O)[C@@H]3C=C4c5cccc6[nH]c(Br)c(c56)C[C@H]4N(C)C3)(C(C)C)C(=O)N12 [BROMOCRIPTINE]	> 30	14	0.538	2.49	> 30	0.197	0.844	2.13	> 30	> 30	1.78	> 30	18.8	> 30	
O=C(Cc1ccc(-c2ccccc2)cc1)Nc1ccccn1 [DIFENPIRAMIDE]	> 30		> 30	> 30	0.58		> 30	> 30	> 30		> 30	> 30	> 30		> 30
O=C1Nc2ccc(Cl)cc2[C@@](C#CC2CC2)(C(F)(F)F)O1 [EFAVIRENZ]	> 30	> 30	> 10			> 10	> 30	> 10	> 30	> 30				> 30	
O=C(OCC(O)CO)c1ccccc1Nc1ccnc2cc(Cl)ccc12 (centres undefined) [GLAFENINE]	> 30	> 30	> 30	4.63	> 30		> 30		> 30	> 30	> 30	> 30	> 30	> 30	> 30
c1ccc([C@H]2CN3CCSC3=N2)cc1 [LEVAMISOLE]	> 30	> 30	> 30			> 10	> 30	> 30	> 30	> 30				> 30	
C[C@@H](O)[C@H]1C(=O)N2C(C(=O)O)=C(S[C@@H]3CN[C@H](C(=O)N(C)C)C3)[C@H](C)[C@H]12 [MEROPENEM]	> 300	> 300	> 300			> 10	> 300	> 10	> 300	> 300				> 300	
CS(=O)(=O)c1ccc(C2=C(c3ccccc3)C(=O)OC2)cc1 [ROFECOXIB]	> 30	> 10	> 30		> 30	> 10	> 30	> 30	> 30	> 10	> 30	> 30	> 30		
CO[C@H]1C[C@@H]2CC[C@@H](C)[C@@](O)(O2)C(=O)C(=O)N2CCCC[C@H]2C(=O)O[C@H]([C@H](C)C[C@@H]2CC[C@@H](O)[C@H](OC)C2)CC(=O)[C@H](C)/C=C(\C)[C@@H](O)[C@@H](OC)C(=O)[C@H](C)C[C@H](C)/C=C/C=C/C=C/1C [SIROLIMUS]	> 30	> 10	> 10	26.6	> 30	0.156	> 30	> 10	> 30	> 10	> 30	> 30	> 30		> 30
Cn1nnc2c(C(N)=O)ncn2c1=O [TEMOZOLOMIDE]	> 30	> 30	> 30			> 10	> 30	> 10	> 30	> 30				> 30	
